Consider 31 compounds from patent US9108921B2, “Therapeutic compounds and compositions” (AGIOS PHARMACEUTICALS, INC, priority 2014, dated 2015).

What all share (type): biochemical
The target in one test is PKR R532W (Homo sapiens, UniProt P30613, R532W). As to the kind of experiment: PKR Mutant Assay, AC50 against PKR R532W. The note with it: mutant PKR R532W enzyme. As to the method: (§1) • PKR or PKR mutant enzyme solution was diluted in assay buffer. • 2 μL of test compound was added into wells first, and then 180 μL reaction mix was added. • Reactions mixture with test compound was assembled except for ADP, and plates were stored for 60 minutes at room temperature. • 20 uL ADP was added to start reaction at room temperature and reaction progress was measured as changes in absorbance at 340 nm wavelength at room temperature.
Chain of PKR R532W (P30613 whole entry R532W): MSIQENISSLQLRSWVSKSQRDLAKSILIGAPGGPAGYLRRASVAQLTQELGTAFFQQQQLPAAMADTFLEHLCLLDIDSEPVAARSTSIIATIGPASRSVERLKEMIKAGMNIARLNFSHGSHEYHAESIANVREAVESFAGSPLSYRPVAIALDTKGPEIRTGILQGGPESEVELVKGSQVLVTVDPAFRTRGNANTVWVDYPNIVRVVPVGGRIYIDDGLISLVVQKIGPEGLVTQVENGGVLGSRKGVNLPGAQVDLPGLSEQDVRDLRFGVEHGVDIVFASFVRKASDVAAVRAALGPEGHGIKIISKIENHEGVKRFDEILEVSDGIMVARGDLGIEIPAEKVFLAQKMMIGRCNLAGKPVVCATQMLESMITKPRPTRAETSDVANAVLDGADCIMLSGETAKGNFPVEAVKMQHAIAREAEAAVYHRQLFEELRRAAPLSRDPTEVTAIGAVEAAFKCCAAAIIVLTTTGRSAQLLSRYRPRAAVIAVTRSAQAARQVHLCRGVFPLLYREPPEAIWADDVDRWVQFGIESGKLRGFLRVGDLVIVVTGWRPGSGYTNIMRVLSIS
(§2) Test Compound Preparation: • Test compound stock was made at 100× concentration in 100% DMSO (10 mM) • 1 to 3 dilutions were made for 11 points (i.e. 50 μl of first concentration added to 100 μl 100% DMSO to yield 3.33 mM, 50 μl of this added to 100 μl DMSO to yield 1.11 mM, and so forth) • 1 to 100 dilution into assay (2 μl in 200 μl) yielded starting concentration of 100 μM, decreasing 3 fold for 11 points. Assay Buffer: 100 mM KCl, 50 mM Tris 7.5, 5 mM MgCl2, 1 mM DTT, 0.03% BSA Reaction Mixture: PKR mutant enzyme: 80-400 ng/well; ADP: 0.22-1.65 mM; PEP: 0.1-0.5 mM; NADH: 180 uM; LDH: 0.5 units (Sigma#59023); DTT: 1 mM; BSA: 0.03%.

Another test deals with PKR WT (Homo sapiens, UniProt P30613). As to the kind of experiment: PKR WT enzymatic AC50 assay. The note with it: wild type PKR. As to the method:
as §1, §2

Another test concerns the target PKR R510Q (Homo sapiens, UniProt P30613, R510Q). Nature of the test: PKR Mutant Assay, AC50 against PKR R510Q. The settings on record: mutant PKR R510Q enzyme. As to the method:
as §1, §2

Chain of PKR R510Q (P30613 whole entry R510Q): as the sequence (P30613 whole entry R532W) above, with R510Q, W532R counted along it
Chain of PKR WT (P30613 whole entry): as the sequence (P30613 whole entry R532W) above, with W532R counted along it

For the compound `CN1C(=O)C=C2C=C(S(=O)(=O)Nc3ccc(C(=O)N4CCC(O)(Cc5ccccc5)CC4)cc3)C=CC21` (stereo not drawn) [Compound 268], the figures for the AC50 on PKR R532W, at PKR WT and at PKR R510Q were 0.101 to 1 µM, 0.101 to 1 µM and 1.01 to 10 µM, respectively.
For the compound `COc1nc(C(=O)N2CCC(O)(c3ccccc3)CC2)ccc1NS(=O)(=O)c1cccc2cccnc12` [Compound 304], the AC50 is 1.01 to 10 µM at PKR R532W, 1.01 to 10 µM at PKR WT and over 10 µM on PKR R510Q.
Consider `CC(C)CC1(O)CCN(C(=O)c2ccc(NS(=O)(=O)c3ccc(F)c4scnc34)cc2)CC1` [Compound 372], for which the AC50 on PKR R532W, at PKR WT and at PKR R510Q was 0.101 to 1 µM each time.
As for `O=C(c1ccc(NS(=O)(=O)c2cccc3scnc23)cc1)N1CCC(O)(c2cn[nH]c2)CC1` [Compound 410, N-[4-[4-hydroxy-4-(1H-pyrazol-4-yl)piperidine-1-carbonyl]phenyl]benzothiazole-4-sulfonamide], the values for the AC50 at PKR R532W, on PKR WT and on PKR R510Q were 0.101 to 1 µM, 0.101 to 1 µM and over 10 µM, respectively.
Regarding `N#Cc1cccc(C2(O)CCN(C(=O)c3ccc(NS(=O)(=O)c4cccc5cccnc45)cc3)CC2)c1` [Compound 278], the concentration at half-maximal activity (AC50) was in the range of 0.101 to 1 µM at PKR R532W, 0.101 to 1 µM on PKR WT and 1.01 to 10 µM on PKR R510Q.
Take `CC(C)CC1(O)CCN(C(=O)c2ccc(NS(=O)(=O)c3ccc(F)c4scnc34)cc2)CC1` [Compound 240, 7-fluoro-N-(4-(4-hydroxy-4-isobutylpiperidine-1-carbonyl)phenyl)benzo[d]thiazole-4-sulfonamide]: the AC50 on PKR R532W, on PKR WT and at PKR R510Q was 0.101 to 1 µM in each case.
For `O=C(c1ccc(NS(=O)(=O)c2cccc3nccnc23)c(F)c1)N1CCC(O)(c2ccccc2Cl)CC1` [Compound 251, N-(4-(4-(2-chlorophenyl)-4-hydroxypiperidine-1-carbonyl)-2-fluorophenyl)quinoxaline-5-sulfonamide], the AC50 at PKR R532W, on PKR WT and at PKR R510Q was 0.101 to 1 µM each time.
Consider `O=C(c1ccc(NS(=O)(=O)c2cccc3scnc23)cc1)N1CCC(O)(CCC(F)(F)F)CC1` [Compound 233, N-(4-(4-hydroxy-4-(3,3,3-trifluoropropyl)piperidine-1-carbonyl)phenyl)benzo[d]thiazole-4-sulfonamide], for which the AC50 on PKR R532W, on PKR WT and on PKR R510Q was 0.101 to 1 µM in each case.
On to `CC(O)CC1(O)CCN(C(=O)c2ccc(NS(=O)(=O)c3cccc4cccnc34)cc2)CC1` (stereo not drawn) [Compound 275], for which the values for the AC50 on PKR R532W, at PKR WT and at PKR R510Q were 0.101 to 1 µM, 0.101 to 1 µM and 1.01 to 10 µM, respectively.
For `O=C(c1ccc(NS(=O)(=O)c2cccc3cccnc23)cc1)N1CCC(O)(c2ccnc(F)c2)CC1` [Compound 247, N-[4-[4-(2-fluoropyridin-4-yl)-4-hydroxy-piperidine-1-carbonyl]phenyl]quinoline-8-sulfonamide], the concentration at half-maximal activity (AC50) at PKR R532W was 0.101 to 1 µM; on PKR WT it was 0.101 to 1 µM; on PKR R510Q, 1.01 to 10 µM.
On to `O=C(c1ccc(NS(=O)(=O)c2ccc(F)c3cccnc23)cc1)N1CCC(O)(Cc2ccccc2F)CC1` [Compound 158, 5-fluoro-N-(4-(4-(2-fluorobenzyl)-4-hydroxypiperidine-1-carbonyl)phenyl)quinoline-8-sulfonamide], for which the AC50 on PKR R532W, at PKR WT and on PKR R510Q was under 0.1 µM in each case.
`O=C(c1ccc(NS(=O)(=O)c2csc3cccnc23)cc1)N1CCC(O)(c2ccccc2Cl)CC1` [Compound 280]: the AC50 at PKR R532W fell in the range of 0.101 to 1 µM; at PKR WT it was 0.101 to 1 µM; at PKR R510Q, 1.01 to 10 µM.
`CC(C)CC1(O)CCN(C(=O)c2ccc(NS(=O)(=O)c3ccc(O)c4nccnc34)cc2)CC1` [Compound 289]: the AC50 at PKR R532W fell in the range of 0.101 to 1 µM; on PKR WT it was 0.101 to 1 µM; on PKR R510Q, 1.01 to 10 µM.
As to `O=C(c1ccc(NS(=O)(=O)c2cccc3nc(F)ccc23)cc1)N1CCC(O)(c2ccccc2Cl)CC1` [Compound 259, N-(4-(4-(2-chlorophenyl)-4-hydroxypiperidine-1-carbonyl)phenyl)-2-fluoroquinoline-5-sulfonamide], the values for the AC50 at PKR R532W, on PKR WT and at PKR R510Q were 0.101 to 1 µM, 0.101 to 1 µM and 1.01 to 10 µM, respectively.
Consider `O=C(c1ccc(NS(=O)(=O)c2ccc(F)c3cccnc23)c(F)c1)N1CCC(O)(c2cccc(F)c2F)CC1` [Compound 277], for which the AC50 on PKR R532W lay within 0.101 to 1 µM; on PKR WT, 0.101 to 1 µM; on PKR R510Q, 1.01 to 10 µM.
Regarding `CC(C)CC1(CO)CCN(C(=O)c2ccc(NS(=O)(=O)c3cccc4nccnc34)cc2)CC1` [Compound 219, N-(4-(4-(hydroxymethyl)-4-isobutylpiperidine-1-carbonyl)phenyl)quinoxaline-5-sulfonamide], the AC50 on PKR R532W was under 0.1 µM; on PKR WT, under 0.1 µM; on PKR R510Q, 0.101 to 1 µM.
On to `O=C(c1ccc(NS(=O)(=O)c2cccc3cccnc23)nc1)N1CCC(O)(c2ccccc2)CC1` [Compound 306], for which the results for the AC50 at PKR R532W, at PKR WT and at PKR R510Q were 1.01 to 10 µM, 1.01 to 10 µM and over 10 µM, respectively.
On to `CC(C)CC1(O)CCN(C(=O)c2ccc(NS(=O)(=O)c3c(F)ccc4ncsc34)cc2)CC1` [Compound 309], for which the results for the AC50 on PKR R532W, at PKR WT and at PKR R510Q were 1.01 to 10 µM, 1.01 to 10 µM and over 10 µM, respectively.
Turning to `O=C(c1ccc(NS(=O)(=O)c2ccccc2C(F)(F)F)cc1)N1CCC(O)(Cc2ccccc2)CC1` [Compound 297], the AC50 at PKR R532W, on PKR WT and at PKR R510Q was 1.01 to 10 µM throughout.
Turning to `O=C(c1ccc(NS(=O)(=O)c2cccc3cccnc23)cc1)N1CCC(C(=O)O)(c2ccccc2)CC1` [Compound 320], the AC50 at PKR R532W, on PKR WT and on PKR R510Q was over 10 µM each time.
Take `O=C(c1ccc(NS(=O)(=O)c2ccc(F)c3cccnc23)cc1)N1CCC(O)(c2cccc(F)c2F)CC1` [Compound 227, N-(4-(4-(2,3-difluorophenyl)-4-hydroxypiperidine-1-carbonyl)phenyl)-5-fluoroquinoline-8-sulfonamide]: the AC50 at PKR R532W, at PKR WT and on PKR R510Q was 0.101 to 1 µM throughout.
Take `O=C(c1ccc(NS(=O)(=O)c2c(F)ccc3ncsc23)cc1)N1CCC(O)(c2ccccc2Cl)CC1` [Compound 303]: the results for the AC50 on PKR R532W, at PKR WT and at PKR R510Q were 1.01 to 10 µM, 1.01 to 10 µM and over 10 µM, respectively.
Consider `O=C(c1ccc(NS(=O)(=O)c2cccc3nccnc23)cc1)N1CCC(O)(CCC(F)(F)F)CC1` [Compound 221, N-(4-(4-hydroxy-4-(3,3,3-trifluoropropyl)piperidine-1-carbonyl)phenyl)quinoxaline-5-sulfonamide], for which the AC50 at PKR R532W is under 0.1 µM; at PKR WT it was under 0.1 µM; at PKR R510Q, 0.101 to 1 µM.
Turning to `CC1(CC2(O)CCN(C(=O)c3ccc(NS(=O)(=O)c4cccc5scnc45)cc3)CC2)CC1` [Compound 132, N-(4-(4-hydroxy-4-((1-methylcyclopropyl)methyl)piperidine-1-carbonyl)phenyl)benzo[d]thiazole-4-sulfonamide], the AC50 at PKR R532W, at PKR WT and on PKR R510Q was under 0.1 µM in each case.
For the compound `O=C(c1ccc(NS(=O)(=O)c2ccc(F)c3nccnc23)cc1)N1CCC(O)(c2ccccc2Cl)CC1` [Compound 234, N-(4-(4-(2-chlorophenyl)-4-hydroxypiperidine-1-carbonyl)phenyl)-8-fluoroquinoxaline-5-sulfonamide], the AC50 on PKR R532W, at PKR WT and at PKR R510Q was 0.101 to 1 µM throughout.
As to `CC(C)CC1(O)CCN(C(=O)c2ccc(NS(=O)(=O)c3cccc4cccnc34)c(C(F)F)c2)CC1` [Compound 258], the AC50 at PKR R532W, on PKR WT and at PKR R510Q was 0.101 to 1 µM throughout.
On to `O=C(c1ccc(NS(=O)(=O)c2cccc3ocnc23)cc1)N1CCC(O)(c2ccccc2Cl)CC1` [Compound 381, N-(4-(4-(2-chlorophenyl)-4-hydroxypiperidine-1-carbonyl)phenyl)benzo[d]oxazole-4-sulfonamide], for which the AC50 at PKR R532W is 0.101 to 1 µM; at PKR WT it was under 0.1 µM; at PKR R510Q, 0.101 to 1 µM.
Regarding `O=C(c1ccc(NS(=O)(=O)c2cccc3cccnc23)cn1)N1CCC(O)(c2ccccc2)CC1` [Compound 298], the AC50 at PKR R532W was 1.01 to 10 µM; on PKR WT it was 1.01 to 10 µM; at PKR R510Q, over 10 µM.
On to `CC(F)(F)CC1(O)CCN(C(=O)c2ccc(NS(=O)(=O)c3cccc4scnc34)cc2)CC1` [Compound 413], for which the AC50 on PKR R532W, on PKR WT and on PKR R510Q was 0.101 to 1 µM each time.
For `CC(C)(O)CCC1(O)CCN(C(=O)c2ccc(NS(=O)(=O)c3cccc4cccnc34)cc2)CC1` [Compound 292], the AC50 at PKR R532W was 1.01 to 10 µM; at PKR WT it was 0.101 to 1 µM; on PKR R510Q it was 1.01 to 10 µM.
As to `O=C(c1ccc(NS(=O)(=O)c2ccc(F)c3scnc23)cc1)N1CCC(O)(c2ccccc2Cl)CC1` [Compound 368], the results for the AC50 on PKR R532W, at PKR WT and on PKR R510Q were 0.101 to 1 µM, 0.101 to 1 µM and 1.01 to 10 µM, respectively.

In general, AC50 refers to the concentration giving half of the maximal activity seen. Low values mean activity at low concentration, high ones activity only at high concentration.
